Like-named read-outs stand apart in the source and are kept apart here.
What was measured:
[1] = 28-day GLP repeated dermal dose toxicity and toxicokinetics study; parameters: species or system Rats; conditions: rat, in vivo; for Cmax / AUC(0-t): topical, 100 mg/kg/day, Day 28; for AUC(0-t): read-out: AUC0-24 h
dogs = experiment: Cardiovascular telemetry study in the unrestrained conscious non-naïve dog; assay type: in vivo; conditions: dermal 10, 25 and 50 mg/kg; up to 48 hours
[2] = tested on: healthy male and female volunteers; experiment: Phase 1 clinical study: skin irritation assessment (dermal response score 0-7); assay type: in vivo, human; conditions: all dose groups
Protocol: Skin irritation due to study drug application was measured by a dermal response score of 0-7 assigned for each study drug application site prior to and 30 min following each dose administration. A score of 6 or 7 was considered a severe reaction. Pre-dose assessments during the multiple dosing served as the 12 hour post-dose assessment of the prior dose.

[3] = 14-day repeated dermal dose toxicity study; parameters: species or system Beagle dogs; conditions: beagle, dog, in vivo, topical or ocular; 14-day dermal
Osteoarthritis = experiment: Phase 2 study: effect of treatment on sign and symptoms of osteoarthritis at 12 weeks (re-analysis, all patients taken as active); assay type: in vivo, human; conditions: for difference from placebo, sign and symptoms of OA: placebo effect assumed −6.1; for Mean ± SEM WOMAC Osteoarthritis Index Composite Score Change from Baselines / Mean ± SEM WOMAC Osteoarthritis Index Composite Score Change from Baselines, adjusted by […] of the testing drug amount: scale 0 to 100
Description: (William G. Bensen, Justus J. Fiechtner, James 1. McMillen, et. al. Treatment of Osteoarthritis with Celecoxib. Mayo Clin Proc, November 1999. Vol 74, 1095-1105.)

Compound: CCN(CC)CCOC(=O)C(C)c1ccc(CC(C)C)cc1 (stereo not shown) [2-(diethylamino)ethyl 2-(4-isobutylphenyl)propionate]
- NOAEL at 28 days ([1]; both sexes, topical or ocular, 28-day dermal, male and female, read-out: systemic NOAEL): 100 mg/kg/day
- Cmax ([1]; female, females): 46800 ng/mL
- AUC(0-t) ([1]; female, females): 422 µg·h/mL
- Cmax ([1]; male, males): 47400 ng/mL
- AUC(0-t) ([1]; male, males): 165 µg·h/mL
- NOAEL at 28 days ([1]; ulcers at application site at ≥100 mg/kg/day, read-out: local NOAEL): 25 mg/kg/day
- qualitative ECG parameters (dogs): 25, and 50 mg/kg of ibuprofenamine and vehicle in dogs. There were no effects
- maximum skin irritation score (0-7) [2]: ≤ 3
- NOAEL at 14 days [3]: 50 mg/kg/day
- difference from placebo, sign and symptoms of OA (Osteoarthritis; 8.75 mg BID, Week 12): −13.4
- adjusted best result relative to Celecoxib (100 mg, BID) (Osteoarthritis; 17.5 mg BID): 6 times
- best result relative to Celecoxib (100 mg, BID) (Osteoarthritis; 17.5 mg BID): 3 times
- difference from placebo, adjusted by […] of the testing drug (Osteoarthritis; 17.5 mg BID, Week 12): −43.5
- difference from placebo, sign and symptoms of OA (Osteoarthritis; 17.5 mg BID, Week 12): −22.8
- difference from placebo, sign and symptoms of OA (Osteoarthritis; 35 mg BID, Week 12): −16.9
- Mean ± SEM WOMAC Osteoarthritis Index Composite Score Change from Baselines (Osteoarthritis; 2 sprays/knee (8.75 mg, BID) transdermally, Follow-up (Week13)): −18.4 ± 3.20
- Mean ± SEM WOMAC Osteoarthritis Index Composite Score Change from Baselines (Osteoarthritis; 2 sprays/knee (8.75 mg, BID) transdermally, Week 2): −11.1 ± 2.50
- Mean ± SEM WOMAC Osteoarthritis Index Composite Score Change from Baselines (Osteoarthritis; 2 sprays/knee (8.75 mg, BID) transdermally, Week 4): −18.0 ± 2.50
- Mean ± SEM WOMAC Osteoarthritis Index Composite Score Change from Baselines (Osteoarthritis; 2 sprays/knee (8.75 mg, BID) transdermally, Week 8): −18.1 ± 2.92
- Mean ± SEM WOMAC Osteoarthritis Index Composite Score Change from Baselines (Osteoarthritis; 2 sprays/knee (8.75 mg, BID) transdermally, Week 12): −19.5 ± 3.18
- Mean ± SEM WOMAC Osteoarthritis Index Composite Score Change from Baselines, adjusted by […] of the testing drug amount (Osteoarthritis; 2 sprays/knee (8.75 mg, BID), Follow-up (Week 13)): −31.6 ± 5.49
- Mean ± SEM WOMAC Osteoarthritis Index Composite Score Change from Baselines, adjusted by […] of the testing drug amount (Osteoarthritis; 2 sprays/knee (8.75 mg, BID), Week 2): −19.0 ± 4.29
- Mean ± SEM WOMAC Osteoarthritis Index Composite Score Change from Baselines, adjusted by […] of the testing drug amount (Osteoarthritis; 2 sprays/knee (8.75 mg, BID), Week 4): −30.9 ± 4.29
- Mean ± SEM WOMAC Osteoarthritis Index Composite Score Change from Baselines, adjusted by […] of the testing drug amount (Osteoarthritis; 2 sprays/knee (8.75 mg, BID), Week 8): −31.0 ± 5.01
- Mean ± SEM WOMAC Osteoarthritis Index Composite Score Change from Baselines, adjusted by […] of the testing drug amount (Osteoarthritis; 2 sprays/knee (8.75 mg, BID), Week 12): −33.4 ± 5.45
- Mean ± SEM WOMAC Osteoarthritis Index Composite Score Change from Baselines (Osteoarthritis; 4 sprays/knee (17.5 mg, BID) transdermally, Follow-up (Week13)): −23.4 ± 3.52
- Mean ± SEM WOMAC Osteoarthritis Index Composite Score Change from Baselines (Osteoarthritis; 4 sprays/knee (17.5 mg, BID) transdermally, Week 2): −15.1 ± 2.89
- Mean ± SEM WOMAC Osteoarthritis Index Composite Score Change from Baselines (Osteoarthritis; 4 sprays/knee (17.5 mg, BID) transdermally, Week 4): −21.3 ± 3.32
- Mean ± SEM WOMAC Osteoarthritis Index Composite Score Change from Baselines (Osteoarthritis; 4 sprays/knee (17.5 mg, BID) transdermally, Week 8): −24.8 ± 3.26
- Mean ± SEM WOMAC Osteoarthritis Index Composite Score Change from Baselines (Osteoarthritis; 4 sprays/knee (17.5 mg, BID) transdermally, Week 12): −28.9 ± 3.38
- Mean ± SEM WOMAC Osteoarthritis Index Composite Score Change from Baselines, adjusted by […] of the testing drug amount (Osteoarthritis; 4 sprays/knee (17.5 mg, BID), Follow-up (Week 13)): −40.1 ± 6.04
- Mean ± SEM WOMAC Osteoarthritis Index Composite Score Change from Baselines, adjusted by […] of the testing drug amount (Osteoarthritis; 4 sprays/knee (17.5 mg, BID), Week 2): −25.9 ± 4.96
- Mean ± SEM WOMAC Osteoarthritis Index Composite Score Change from Baselines, adjusted by […] of the testing drug amount (Osteoarthritis; 4 sprays/knee (17.5 mg, BID), Week 4): −36.5 ± 5.69
- Mean ± SEM WOMAC Osteoarthritis Index Composite Score Change from Baselines, adjusted by […] of the testing drug amount (Osteoarthritis; 4 sprays/knee (17.5 mg, BID), Week 8): −42.5 ± 5.59
- Mean ± SEM WOMAC Osteoarthritis Index Composite Score Change from Baselines, adjusted by […] of the testing drug amount (Osteoarthritis; 4 sprays/knee (17.5 mg, BID), Week 12): −49.6 ± 5.80
- Mean ± SEM WOMAC Osteoarthritis Index Composite Score Change from Baselines (Osteoarthritis; 8 sprays/knee (35 mg, BID) transdermally, Follow-up (Week13)): −22.1 ± 3.23
- Mean ± SEM WOMAC Osteoarthritis Index Composite Score Change from Baselines (Osteoarthritis; 8 sprays/knee (35 mg, BID) transdermally, Week 2): −11.7 ± 2.88
